# Where two headings read alike, the source gives them in different places.
# Tests used:
# [1] = Cytotoxicity assay, WST-8; settings: human, HepG2 cells, CC50 (μg/mL), HepG2, 48 hours, Table 1
# [2] = test system: Staphylococcus aureus strain LMG15975; assay: MIC by broth micro-dilution, AM3/PBS 1:1; assay type: cell-based
# Description: (§1) At first (Table 1), MIC is determined by broth micro-dilution method. The test medium is Antibiotic Medium 3 (AM3; Difco Ltd) mixed with Phosphate Buffered Saline (PBS) in proportions 1:1. Selected MIC values are verified using cation-adjusted Mueller Hinton Broth (MHB; BD). Cell concentration of tested pathogen is adjusted to between 3 and 5×10^5 cells per ml. To verify cell concentration of tested pathogen, viable cell counts are performed directly after each MIC-test by dilution method with PBS as a dilution solvent. Cells are counted on the agar plates with 50% strength Vegetable Peptone Broth (50% VPB; Oxoid Ltd) after 16 to 20 h of incubation at 37° C.
# (§2) Cells of pathogen suspended in test medium are distributed to the wells and the plates are incubated for 16 to 20 h at 37° C. Negative controls are wells with the test medium only and positive controls are wells with the pathogen in test medium. The MIC is defined as the lowest concentration of each compound with no visible growth of pathogen.
# Example compounds of formula I were examined for antibacterial activity against the Gram-positive bacterium Staphylococcus aureus strain LMG15975 using the above described method (Table 1).
# [3] = test system: A. baumannii; assay: MIC by broth micro-dilution; assay type: cell-based; settings: Acinetobacter baumannii, A. baumannii (G−), Table 2; read-out: MIC (μg/ml) A. baumannii
# Description: as §1, §2
# [4] = LMG15975, S. aureus LMG15975, Table 1, read-out: MIC
# [5] = LMG15975, S. aureus LMG15975, Table 1, read-out: MIC (μg/ml)
# [6] = LMG15975, S. aureus (G+), Table 2, read-out: MIC (μg/ml) S. aureus
smiles,measurement,setting,value
"CCCCCCCCCCC1CC(O)=C(C(=O)CCCC)C(=O)O1 (centres unmarked) [Ex. 3, 6-decyl-4-hydroxy-3-pentanoyl-5,6-dihydro-2H-pyran-2-one]",CC50 at 48 h,[1],13 µM
same,MIC,[2]; [4],1.2 to 1.8 µM
same,MIC,[2]; [5],0.4 to 0.6 µg/mL
"CCCCCCCCC1CC(O)=C(C(=O)CC)C(=O)O1 (centres unmarked) [Ex. 6, 4-hydroxy-6-octyl-3-propionyl-5,6-dihydro-2H-pyran-2-one]",CC50 at 48 h,[1],55 µM
same,MIC,[2]; [4],4.3 µM
same,MIC,[2]; [5],1.2 µg/mL
"CCCCCCCCC1CC(O)=C(C(C)=O)C(=O)O1 (centres unmarked) [Ex. 7, 3-acetyl-4-hydroxy-6-octyl-5,6-dihydro-2H-pyran-2-one]",CC50 at 48 h,[1],65 µM
same,MIC,[2]; [4],9.3 µM
same,MIC,[2]; [5],2.5 µg/mL
"CCCCCCCCCC1CC(O)=C(C(C)=O)C(=O)O1 (centres unmarked) [Ex. 9, 3-acetyl-4-hydroxy-6-nonyl-5,6-dihydro-2H-pyran-2-one]",MIC,[3],> 64 µg/mL
same,CC50 at 48 h,[1],71 µM
same,MIC,[2]; [6],1.5 to 2.5 µg/mL
same,MIC,[2]; [4],2.1 to 4.3 µM
same,MIC,[2]; [5],1.5 to 2.5 µg/mL
"CCCCCCCCCCC1CC(O)=C(C(C)=O)C(=O)O1 (centres unmarked) [Ex. 11, 3-acetyl-6-decyl-4-hydroxy-5,6-dihydro-2H-pyran-2-one]",CC50 at 48 h,[1],40 µM
same,MIC,[2]; [4],2.7 to 4 µM
same,MIC,[2]; [5],0.8 to 1.2 µg/mL
"CCCCCCCCCCC1CC(O)=C(C(=O)CCC)C(=O)O1 (centres unmarked) [Ex. 12, 3-butyryl-6-decyl-4-hydroxy-5,6-dihydro-2H-pyran-2-one]",MIC,[3],8 to 16 µg/mL
same,CC50 at 48 h,[1],25 µM
same,MIC,[2]; [6],0.6 to 0.8 µg/mL
same,MIC,[2]; [4],1.9 to 2.6 µM
same,MIC,[2]; [5],0.6 to 0.8 µg/mL
"CCCCCCCCCC1CC(O)=C(C(=O)CC(C)C)C(=O)O1 (centres unmarked) [Ex. 15, 4-hydroxy-3-(3-methylbutanoyl)-6-nonyl-5,6-dihydro-2H-pyran-2-one]",CC50 at 48 h,[1],21 µM
same,MIC,[2]; [4],0.6 to 1.2 µM
same,MIC,[2]; [5],0.2 to 0.4 µg/mL
"CCCC(=O)C1=C(O)CC(CCCCCCCOC)OC1=O (centres unmarked) [Ex. 20, 3-butyryl-4-hydroxy-6-(7-methoxyheptyl)-5,6-dihydro-2H-pyran-2-one]",CC50 at 48 h,[1],80 µM
same,MIC,[2]; [4],64 to 96 µM
same,MIC,[2]; [5],20 to 30 µg/mL
"CCCC(=O)C1=C(O)CC(CC(C)CCC=C(C)C)OC1=O (centres unmarked) [Ex. 21, 3-butyryl-6-(2,6-dimethylhept-5-enyl)-4-hydroxy-5,6-dihydro-2H-pyran-2-one]",MIC,[2]; [4],6.5 to 9.7 µM
same,MIC,[2]; [5],2 to 3 µg/mL
"CCCC(=O)C1=C(O)CC(CC2CCCC2)OC1=O (centres unmarked) [Ex. 22, 3-butyryl-6-(cyclopentylmethyl)-4-hydroxy-5,6-dihydro-2H-pyran-2-one]",MIC,[2]; [4],22 to 45 µM
same,MIC,[2]; [5],6 to 12 µg/mL
"COCCCCCCC1CC(O)=C(C(=O)CC2CCCC2)C(=O)O1 (centres unmarked) [Ex. 23, 3-(2-cyclopentylacetyl)-4-hydroxy-6-(6-methoxyhexyl)-5,6-dihydro-2H-pyran-2-one]",MIC,[2]; [4],29 to 59 µM
same,MIC,[2]; [5],10 to 20 µg/mL
"CCCCCCCCCC1CC(O)=C(C(=O)CCOC)C(=O)O1 (centres unmarked) [Ex. 24, 4-hydroxy-3-(3-methoxypropanoyl)-6-nonyl-5,6-dihydro-2H-pyran-2-one]",MIC,[2]; [4],6.1 to 15 µM
same,MIC,[2]; [5],2 to 5 µg/mL
"COCCCCCCC1CC(O)=C(C(=O)CC2CC2)C(=O)O1 (centres unmarked) [Ex. 25, 3-(2-cyclopropylacetyl)-4-hydroxy-6-(6-methoxyhexyl)-5,6-dihydro-2H-pyran-2-one]",MIC,[2]; [4],> 64 µM
same,MIC,[2]; [5],> 20 µg/mL
"CCCCCCCCCC1CC(O)=C(C(=O)CC2CCOCC2)C(=O)O1 (centres unmarked) [Ex. 26, 4-hydroxy-6-nonyl-3-(2-(tetrahydro-2H-pyran-4-yl)acetyl)-5,6-dihydro-2H-pyran-2-one]",MIC,[2]; [4],1.4 to 2.7 µM
same,MIC,[2]; [5],0.5 to 1 µg/mL
"N#CCCCCCCCC1CC(O)=C(C(=O)CC2CCOCC2)C(=O)O1 (centres unmarked) [Ex. 27, 8-(4-hydroxy-6-oxo-5-(2-(tetrahydro-2H-pyran-4-yl)acetyl)-3,6-dihydro-2H-pyran-2-yl)octanenitrile]",MIC,[2]; [4],5.5 to 14 µM
same,MIC,[2]; [5],2 to 5 µg/mL
"N#CCCCCCCCC1CC(O)=C(C(=O)CC2CCCCC2)C(=O)O1 (centres unmarked) [Ex. 28, 8-(5-(2-cyclohexylacetyl)-4-hydroxy-6-oxo-3,6-dihydro-2H-pyran-2-yl)octanenitrile]",MIC,[2]; [4],> 55 µM
same,MIC,[2]; [5],> 20 µg/mL

# — patent US10471043B2, “Compounds and methods of treating bacterial infections” (ULTUPHARMA AB, priority 2015, dated 2019)
